According to article PMC12040169 (PLOS Biology, 2025):

Experiment: in vitro
Details: human, hela cells, % viability

**Q.** For O=C(O)CCc1ccc(-c2ccc(F)cc2)n1CC1CCCO1 (stereo not drawn) [CBK268988], which viability at 28.5 h, 10 µM is on record?
**A.** The viability at 28.5 h, 10 µM was 86.5%.

**Q.** Which viability at 28.5 h, 10 µM does the source give for O=C(c1cc(-c2ccccn2)n[nH]1)N1CCC(c2ccccc2)C1 (stereo not drawn) [CBK281852] here?
**A.** Its viability at 28.5 h, 10 µM is 91.9%.

**Q.** With Cc1[nH]c2ccccc2c1C(=O)C(=O)Nc1ccc(C#N)cc1 [CBK269896] as the molecule, how does the viability at 28.5 h, 10 µM read?
**A.** The viability at 28.5 h, 10 µM was 84.6%.

**Q.** With Cc1nc(NC(=O)CN2CCN(c3cccc(Cl)c3)CC2)sc1C [CBK305902] as the molecule, how does the viability at 28.5 h, 10 µM read?
**A.** Its viability at 28.5 h, 10 µM is 88.5%.

**Q.** With C=CCN1CCC(C(=O)NC(C)c2cc(OC)ccc2OC)CC1 (stereo not drawn) [CBK148762] as the molecule, how does the viability at 28.5 h, 10 µM read?
**A.** Its viability at 28.5 h, 10 µM is 116%.

**Q.** With CCCC/C=C/c1nccnc1NCc1ccco1 [CBK037116] as the molecule, how does the viability at 28.5 h, 10 µM read?
**A.** The viability at 28.5 h, 10 µM was 105%.

**Q.** With Cc1ccc(NC(=O)CN2C(=O)N/C(=C\c3cc(Br)cc(Cl)c3O)C2=O)cc1 [CBK265018] as the molecule, how does the viability at 28.5 h, 10 µM read?
**A.** Its viability at 28.5 h, 10 µM is 98.7%.

**Q.** With Cc1cccc(N2CCN(C(=O)CCc3ccsc3)C(C)C2)n1 (stereo not drawn) [CBK304069] as the molecule, how does the viability at 28.5 h, 10 µM read?
**A.** Its viability at 28.5 h, 10 µM is 96.6%.

**Q.** With Fc1ccc2c3c([nH]c2c1)C1(CCN(CCCOCc2ccccc2)CC1)NCC3 [CBK039858] as the molecule, how does the viability at 28.5 h, 10 µM read?
**A.** Its viability at 28.5 h, 10 µM is 92.7%.

**Q.** Which viability at 28.5 h, 10 µM does the source give for Nc1nc(-c2ccc(Cl)cc2)c(CC(=O)O)s1 [CBK287188] here?
**A.** Its viability at 28.5 h, 10 µM is 80%.

**Q.** For O=c1[nH]c2ncc(-c3ccncc3)nc2n1C1CCCC1 [CBK064972], which viability at 28.5 h, 10 µM is on record?
**A.** The viability at 28.5 h, 10 µM was 116%.

**Q.** With O=C(O)Cc1nn(Cc2ccccc2)c(=O)c2ccccc12 [CBK262315] as the molecule, how does the viability at 28.5 h, 10 µM read?
**A.** Its viability at 28.5 h, 10 µM is 115%.

**Q.** With COc1ccc(-c2nnc3[nH]c(=O)n(C)c(=O)c3n2)cc1OC [CBK263914] as the molecule, how does the viability at 28.5 h, 10 µM read?
**A.** Its viability at 28.5 h, 10 µM is 89%.

**Q.** For FC(F)(F)c1nc2ccccc2nc1OCCc1c[nH]c2ccccc12 [CBK115843], which viability at 28.5 h, 10 µM is on record?
**A.** The viability at 28.5 h, 10 µM was 93.2%.

**Q.** For COc1cccc(CN(Cc2ncc[nH]2)Cc2ccco2)c1 [CBK282496], which viability at 28.5 h, 10 µM is on record?
**A.** Its viability at 28.5 h, 10 µM is 98.7%.

**Q.** Which viability at 28.5 h, 10 µM does the source give for COc1ccccc1CCC(=O)Nc1cnn(C)c1 [CBK287995] here?
**A.** The viability at 28.5 h, 10 µM was 117%.

**Q.** Which viability at 28.5 h, 10 µM does the source give for CC(=O)N1CC(C)(C)c2ccccc21 [CBK003715] here?
**A.** Its viability at 28.5 h, 10 µM is 99.6%.

**Q.** For COc1cccc(C(=O)N2CCC(Cc3ccccc3-c3ccccc3)(C(N)=O)CC2)c1 [CBK285729], which viability at 28.5 h, 10 µM is on record?
**A.** The viability at 28.5 h, 10 µM was 93.6%.

**Q.** With NS(=O)(=O)c1ccc(CCNC2CC(=O)N(CCc3ccccc3)C2=O)cc1 (stereo not drawn) [CBK263502] as the molecule, how does the viability at 28.5 h, 10 µM read?
**A.** The viability at 28.5 h, 10 µM was 93.4%.

**Q.** With COc1cc2c(cc1OC)C1c3ccccc3NC(=O)N1CC2 (stereo not drawn) [CBK284471] as the molecule, how does the viability at 28.5 h, 10 µM read?
**A.** Its viability at 28.5 h, 10 µM is 88%.

**Q.** Which viability at 28.5 h, 10 µM does the source give for COc1c(C)cc(Br)cc1C(=O)Nc1ccccc1-c1nc2ccccc2s1 [CBK267155] here?
**A.** Its viability at 28.5 h, 10 µM is 99.8%.

**Q.** For O[C@@H]1C[C@@H](c2nc(-c3ccc4c(c3)OCO4)no2)N(Cc2cc3ccccc3o2)C1 [CBK288868], which viability at 28.5 h, 10 µM is on record?
**A.** Its viability at 28.5 h, 10 µM is 83.9%.

**Q.** Which viability at 28.5 h, 10 µM does the source give for CCc1nnc(N/N=C/c2cc(Cl)c(OCc3ccccc3F)c(OC)c2)n1N [CBK278282C] here?
**A.** Its viability at 28.5 h, 10 µM is 85.4%.

**Q.** For O=[N+]([O-])c1cc(CN2CCCCC2)c2cccnc2c1O [CBK265121], which viability at 28.5 h, 10 µM is on record?
**A.** The viability at 28.5 h, 10 µM was 86.3%.

**Q.** For CCN(CC)CCCNc1c([N+](=O)[O-])c(=O)n(C)c2ccccc12 [CBK264893], which viability at 28.5 h, 10 µM is on record?
**A.** Its viability at 28.5 h, 10 µM is 112%.

**Q.** With NC(=O)c1cccc(-c2nc(-c3cccs3)cnc2N)c1 [CBK064117] as the molecule, how does the viability at 28.5 h, 10 µM read?
**A.** The viability at 28.5 h, 10 µM was 89.7%.

**Q.** Which viability at 28.5 h, 10 µM does the source give for CSCCN1CCC(Oc2nccnc2OCCN2C(=O)CCC2=O)CC1 [CBK084351] here?
**A.** The viability at 28.5 h, 10 µM was 100%.

**Q.** With CCOc1ccccc1OCC(C)CNC (stereo not drawn) [CBK026242G] as the molecule, how does the viability at 28.5 h, 10 µM read?
**A.** The viability at 28.5 h, 10 µM was 120%.

**Q.** With CCOC(=O)C1=C(N)OC2=C(C(=O)CC(C)(C)C2)C1c1cc(OCC)ccc1OCC (stereo not drawn) [CBK008699] as the molecule, how does the viability at 28.5 h, 10 µM read?
**A.** The viability at 28.5 h, 10 µM was 107%.

**Q.** For CCCCCn1c(=O)c(-c2nc3ccccc3c(=O)[nH]2)c(O)c2ccccc21 [CBK291215], which viability at 28.5 h, 10 µM is on record?
**A.** The viability at 28.5 h, 10 µM was 110%.

**Q.** Which viability at 28.5 h, 10 µM does the source give for Cc1cccc(-c2cn3ccnc3c(N3CCN(c4ccccn4)CC3)n2)c1 [CBK066478] here?
**A.** The viability at 28.5 h, 10 µM was 89.3%.

**Q.** With OC1CCCCC1C1(NC(=S)Nc2ccccc2)CCCCC1 (stereo not drawn) [CBK026324] as the molecule, how does the viability at 28.5 h, 10 µM read?
**A.** Its viability at 28.5 h, 10 µM is 97.9%.

**Q.** Which viability at 28.5 h, 10 µM does the source give for CCOc1cccc(C(=O)NC(=S)Nc2nc(C)c(C(=O)OC)s2)c1 [CBK092056] here?
**A.** Its viability at 28.5 h, 10 µM is 93.6%.

**Q.** For CS(=O)(=O)Nc1nccnc1N1CCN(Cc2ccccc2)CC1 [CBK084268], which viability at 28.5 h, 10 µM is on record?
**A.** Its viability at 28.5 h, 10 µM is 96.5%.

**Q.** Which viability at 28.5 h, 10 µM does the source give for CC(=O)NCc1cccc(-c2cc(C(=O)Nc3ccc4c(c3)OCCO4)cnc2O)c1 [CBK149871T] here?
**A.** Its viability at 28.5 h, 10 µM is 91.6%.

Same assay, conditions: human, hela cells, % viability, bulk resorufin, single well

**Q.** Which viability at 28.5 h, 10 µM does the source give for CCOc1cc(/C=C2/C(=O)NC(=S)N(c3ccccc3CC)C2=O)ccc1OC(C)C(=O)O (stereo not drawn) [CBK264460] here?
**A.** The viability at 28.5 h, 10 µM was 97.8%.
